From US20140199265A1, “NUTRITIONAL COMPOSITIONS CONTAINING A NEUROLOGIC COMPONENT AND USES THEREOF” (MEAD JOHNSON NUTRITION COMPANY, priority 2013, published 2014)

Legend:
[1] = system: human adipose-derived stem cells (hADSCs); assay: neurogenesis / neuronal differentiation of hADSCs judged by neuronal morphology under phase contrast microscopy; assay type: cell-based
Method: hADSCs were purchased from Invitrogen, also known as Life Technologies, of Carlsbad, Calif., U.S.A., and were cultured as near confluent monolayers in 100 mm culture plates within a maintenance media consisting of Complete MesenPro RS medium with growth supplement and L-glutamine obtained from Invitrogen®. The process of culturing, passage, and seeding the hADSCs is described below.
The subculture of hADSCs was performed when cell culture reached confluence. To passage hADSCs, the following procedure is used: i) aspirate the Complete MesenPRO RS medium from the cells; ii) rinse the surface area of the cell layer with Dulbecco's phosphate buffered saline (DBPS) buffer by adding the DPBS to the side of the vessel opposite the attached cell layer and rocking the vessel back and forth several times; iii) remove the DPBS by aspiration and discard; iv) detach the cells by adding a sufficient volume of pre-warmed trypsin-EDTA solution without phenol red to cover the cell layer; v) incubate at 37° C. for approximately 7 minutes; vi) observe the cells under a microscope to determine if additional incubation is needed; vii) add 3 mL of the maintenance media to the plate, mix the cell suspension, add the suspension to a 15 mL centrifuge tube and centrifuge at 210 g for 5 minutes; viii) determine the total number of cells and percent viability using a hemacytometer; ix) add Complete MesenPRO RS medium to each vessel so that the final culture volume is 0.2 mL-0.5 mL per cm^2; x) seed the cells by adding the appropriate volume of cells to each vessel and incubate at 37° C., 5% CO2 and 90% humidity; and xi) three or four days after seeding, completely remove the medium and replace with an equal volume of Complete MesenPRO RS medium.
Before seeding the passaged hADSCs on fresh culture plates, the surfaces of the culture ware are washed with sterile DPBS solution three times, followed by multiple rinses with sterile water. The first layer of coating is poly-L-ornithine. The coating is prepared by adding about 15 to about 20 μg/mL of poly-L-ornithine and incubating at 37° C. for one hour. The plate is washed three times with DPBS, 15 minutes per wash. The second layer of coating is bovine plasma fibronectin. The fibronectin is diluted in DPBS from stock to 1:1000 and 500 μL is added to each well. The plate is left at room temperature for one hour. One final wash with 500 μL per well of DPBS is performed and the plate is used immediately.
The cells were then subjected to removal and reseeded at a density of 2×10^4 cells/ml (1×10^4 cells/well) onto 24-well culture plates that contained a poly-L-ornithine and bovine plasma fibronectin coating.
Three days after seeding and priming; the culture medium was changed into neuronal differentiation medium. The culture plates were removed from the incubator and all procedures were conducted in a laminar flow hood. The culture medium was completely removed from each well. The hADSCs were then washed with sterile DPBS solution in an amount of about 1 ml per well, to remove excess culture medium. The DPBS solution was removed and replaced with neuronal differentiation medium. The formulation of the neuronal differentiation medium is such that neurogenesis would be attributed to the nutrient and not to the medium. The neuronal differentiation medium used was Neurobasal™ Medium, available from Invitrogen®, which comprises the following ingredients listed below in Table 1.
PE was added to individual wells at various concentrations in the serum-free medium. Pre-warmed serum-free medium contains Neural Basal medium with L-glutamine, 20 ng/mL of bFGF, 20 ng/mL of EGF and N2 supplement.
[…] PE in varying concentrations was tested individually and compared to the positive control, DHA, and the negative control (no treatment) under phase contrast microscopy at 24 hours, 48 hours and 96 hours. The experiments were repeated in triplicate. […]

[2] = system: human neuronal stem cells (hNSCs); assay: neurogenesis of GFP-expressing hNSCs judged by morphological changes under inverted fluorescent microscopy; assay type: cell-based
Method: Briefly, hNSCs were purchased from Millipore, Bellerica, Mass., U.S.A., with genetic modification to constitutively express green fluorescent protein (“GFP”). The hNSCs were cultured on laminin coated plates as recommended by the manufacturer. Both laminin and DEME/F12 were obtained from Millipore. Laminin was diluted with DMEM/F12 to 20 μg/mL. 10 ml of diluted laminin solution was added to 10 cm tissue culture dish. Then the culture dish was incubated in a 37° C., 5% CO2 incubator overnight. Just before use, the laminin solution was aspirated and rinsed once with sterile DPBS solution. hNSCs were cultured in the ReNcell NSC maintenance medium (Millipore) supplied with 20 ng/mL bFGF and 20 ng/mL EGF in a 37° C., 5% CO2 incubator. Medium was exchanged with fresh medium containing bFGF and EGF every other day thereafter.
After hNSCs reach 80% confluence, hNSCs were ready for the differentiation experiment. Before seeding, a 96-well plate was freshly coated with 20 μg/mL laminin solution followed by a brief DPBS rinse as described above. Culture medium was removed carefully and hNSCs were dissociated within 3 ml Accutase (Millipore) in a 37° C., 5% CO2 incubator for 3 minutes. Then 5 ml of ReNcell NSC maintenance medium (Millipore) supplied with 20 ng/mL bFGF and 20 ng/mL EGF were added. The cell suspension was then transferred a sterile 15 ml conical tube and the cells were pelleted by the centrifugation at 300×g for 5 minutes. Supernatant was removed. 2 ml medium was then applied to the tube and hNSCs was resuspended thoroughly. The hNSCs were seeded on a 96-well plate at a density of 1×10^4 cell/ml (1000 cells/well, 100 μl/well).
After attaching to the culture surface, the culture medium was switched to serum-free differentiation medium in the presence of CDP-choline, or DHA, or no treatment. The serum-free differentiation medium was prepared freshly before the switching including 40 ml DMEM/F12 (Millipore), 400 μL-Glutamine at a concentration of 200 mM (Life Technologies, Carlsbad, Calif.), 400 μl B27 solution (Life Technologies, Carlsbad, Calif.), and 40 μl Heperin (Sigma-Aldrich, St. Louis, […].) solution at a concentration of 10 mg/mL.
The entire 96-well plate was placed under the Leica DMI4000B fluorescent microscopy, and images were taken with GFP filter under a microscope with UV light source.

[3] = CDP-choline of 404 (so in the source), after 72 hours

In the case of C[N+](C)(C)CCOP(=O)(O)OP(=O)([O-])OC[C@H]1O[C@@H](n2ccc(N)nc2=O)[C@H](O)[C@@H]1O [CDP-choline, cytidine diphosphate-choline], the “effect to enhance neurogenesis (neurite outgrowth, morphological changes)” value ([1]; 5 μM, FIG. 4C) is reported as “demonstrated an effect to enhance neurogenesis”, the “length of neurite outgrowth” value [2, 3] is reported as “comparable to DHA at 20 μM” and the “neurogenesis compared to no treatment” value [2, 3] is reported as “dramatically promoted neurogenesis”.

For CCCCCCCCCCCCC/C=C/[C@@H](O)[C@@H](CO)NC(=O)CCCCCCC [N-octanoyl-D-threo-sphingosine], the neurogenesis ([2]; 10 μM, FIG. 5E) was “dramatically promoted neurogenesis”.

CCCCCCCCCCCCC/C=C/[C@@H](O)[C@H](CO)NC(=O)C(O)CCCCCCCCCC (stereo partly drawn) [N—(R,S)-alpha-Hydroxydodecanoyl-D-erythrosphingosine] was tested, and the early neurogenesis ([1]; 40 μM, 24 hours after treating, FIG. 5B) was “Early neurogenesis was also, observed”, the “effects to promote neurogenesis compared with DHA” value ([1]; tested at 20 and 40 μM vs DHA 10 μM, 24 hours) was “moderate effects to promote neurogenesis” and the “neuronal changes in terms of morphology” value ([1]; tested at 20 and 40 μM, 24 hours) was “obvious neuronal changes in terms of morphology”.

With O=c1ccn([C@@H]2O[C@H](CO)[C@@H](O)[C@H]2O)c(=O)[nH]1 [uridine] the early neurogenesis ([1]; 20 μM, three hours after switching to neural differentiation medium, FIG. 6B) was “Early neurogenesis was observed”, the “duration of neuronal morphological changes” value ([1]; 0.5 mM) was “continued up to the 48-hour time course of the culture” and the “effect to enhance early neurogenesis” value ([1]; 0.5 mM) was “demonstrated the strongest effect to enhance early neurogenesis”. The “length of neurite outgrowth” value ([2]; 20 μM) was “good effects of neurogenesis” and the neurogenesis ([2]; 20 μM, FIG. 6C) was “dramatically promoted neurogenesis”.

For lactosylceramide, the neurogenesis action ([1]; 10 μM, FIG. 5D) was “exhibit neurogenesis action”.

For phosphatidylethanolamine [PE], the “effect to enhance neurogenesis (neuronal morphology)” value ([1]; 20 μM, among 10, 20 and 40 μM tested, FIGS. 2C, 2D) was “demonstrated the strongest effect to enhance neurogenesis”.

sphingomyelin was tested, and the neural differentiation ([1]; 40 μM) was “enhanced neural differentiation of hADSCs” and the “extensions compared to negative control” value ([1]; even at low concentrations (10-40 μM tested)) was “longer than negative control and much more numerous”.
